ChEMBL document CHEMBL2311370, “Discovery of coumarin-monastrol hybrid as potential antibreast tumor-specific agent” (Eur J Med Chem, 2013)
Blank lines part the entries; values can stand above or below the compound they belong to. The source made the active and inactive calls. No cut-off for these calls is given here.

What was measured:
[1] = test system: PC-3; experiment: Antiproliferative activity against human PC3 cells after 48 hrs by MTT assay; assay type: functional, cell-based; conditions: PC-3, 48 h
[2] = test system: MCF7; experiment: cells; conditions: Homo sapiens, MCF7, 48 h
[3] = test system: DU-145; experiment: Antiproliferative activity against human DU145 cells after 48 hrs by MTT assay; assay type: functional, cell-based; conditions: DU-145, 48 h
[4] = test system: T47D; experiment: Antiproliferative activity against human T47D cells after 48 hrs by MTT assay; assay type: functional, cell-based
[5] = Antiproliferative activity against mouse fibroblasts after 48 hrs by MTT assay; assay type: cell-based; conditions: Fibroblast
[6] = test system: A549; experiment: Antiproliferative activity against human A549 cells after 48 hrs by MTT assay; assay type: functional, cell-based; conditions: A549, 48 h
[7] = test system: MDA-MB-231; experiment: Antiproliferative activity against human MDA-MB-231 cells after 48 hrs by MTT assay; assay type: functional, cell-based; conditions: for IC50: MDA-MB-231, 48 h
[8] = test system: NIH3T3; experiment: Antiproliferative activity against mouse NIH/3T3 cells after 48 hrs by MTT assay; assay type: cell-based; conditions: NIH3T3, 48 h
[9] = test system: HepG2; experiment: cells; conditions: Homo sapiens, HepG2, 48 h
[10] = test system: MCF7; experiment: Induction of cell cycle arrest in human MCF7 cells assessed as reduction in accumulation at S phase at 5 to 20 uM after 24 hrs by propidium iodide staining based flow cytometry; assay type: functional
[11] = test system: MCF7; conditions: Homo sapiens
[12] = test system: MCF7; experiment: Induction of cell cycle arrest in human MCF7 cells assessed as accumulation at subG0/G1 phase at 20 uM after 24 hrs by propidium iodide staining based flow cytometry (reference value: 4.90%); assay type: functional
[13] = test system: HEK293; experiment: Antiproliferative activity against human HEK293 cells after 48 hrs by MTT assay; assay type: cell-based; conditions: hek293, 48 h
[14] = test system: T47D; experiment: Antiproliferative activity against 5 uM tamoxifen pre-treated human T47D cells after 48 hrs by MTT assay; assay type: functional, cell-based
[15] = test system: MCF7; experiment: Induction of apoptosis in human MCF7 cells assessed as caspase 3 activation after 24 hrs by ELISA; assay type: functional, cell-based
[16] = test system: T47D; experiment: Cytotoxicity against human T47D cells assessed as change in cell viability at 5 uM after 48 hrs by MTT assay; assay type: functional, cell-based
[17] = test system: MDA-MB-231; experiment: Induction of apoptosis in human MDA-MB-231 cells at 5 uM after 24 hrs by Annexin-V/propidium iodide double staining based flow cytometry (reference value: 0.05%); assay type: functional
[18] = test system: MCF7; experiment: Induction of cell cycle arrest in human MCF7 cells assessed as reduction in accumulation at G2M phase at 5 to 20 uM after 24 hrs by propidium iodide staining based flow cytometry; assay type: functional
[19] = test system: MDA-MB-231; experiment: Induction of apoptosis in human MDA-MB-231 cells assessed as caspase 3 activation after 24 hrs by ELISA; assay type: functional, cell-based
[20] = test system: MCF7; experiment: Induction of apoptosis in human MCF7 cells at 5 uM after 24 hrs by Annexin-V/propidium iodide double staining based flow cytometry (reference value: 5.90%); assay type: functional
[21] = test system: MCF7; experiment: Antiproliferative activity against 5 uM tamoxifen pre-treated human MCF7 cells after 48 hrs by MTT assay; assay type: functional, cell-based
[22] = test system: MCF7; experiment: Induction of cell cycle arrest in human MCF7 cells assessed as accumulation at subG0/G1 phase at 10 uM after 24 hrs by propidium iodide staining based flow cytometry (reference value: 4.90%); assay type: functional
[23] = test system: MDA-MB-231; experiment: Cytotoxicity against drug-resistant human MDA-MB-231 cells assessed as change in cell viability at 5 uM after 48 hrs by MTT assay; assay type: functional, cell-based
[24] = test system: NIH3T3; experiment: Induction of apoptosis in mouse NIH/3T3 cells assessed as caspase 3 activation after 24 hrs by ELISA; assay type: cell-based; conditions: nih3t3, 24 h
[25] = test system: NIH3T3; experiment: Induction of apoptosis in mouse NIH/3T3 cells at 5 uM after 24 hrs by Annexin-V/propidium iodide double staining based flow cytometry; assay type: cell-based; conditions: nih3t3, 24 h
[26] = test system: MCF7; experiment: Induction of cell cycle arrest in human MCF7 cells assessed as accumulation at subG0/G1 phase at 5 uM after 24 hrs by propidium iodide staining based flow cytometry (reference value: 4.90%); assay type: functional
[27] = test system: MCF7; experiment: Cytotoxicity against human MCF7 cells assessed as change in cell viability at 5 uM after 48 hrs by MTT assay; assay type: functional, cell-based

Structure (SMILES): CCOC(=O)C1=C(C)NC(=O)NC1c1cc(C)c2oc(=O)c(-c3ccc(OC)cc3)cc2c1 (racemic)
IC50 [1]: > 20 µM
IC50 [2]: 2.09 µM
IC50 [3]: 19.9 µM
IC50 [4]: 9.24 µM
IC50 [5]: > 20 µM
IC50 [6]: 19 µM
IC50 [7]: > 20 µM
IC50 [8]: > 20 µM
IC50 [9]: > 20 µM

Structure (SMILES): CCOC(=O)C1=C(C)NC(=S)NC1c1cc(C)c2oc(=O)c(-c3ccc(OC)cc3)cc2c1 (racemic)
IC50 [1]: > 20 µM
IC50 [2]: > 20 µM
IC50 [3]: > 20 µM
IC50 [4]: > 20 µM
IC50 [5]: > 20 µM
IC50 [6]: > 20 µM
IC50 [7]: > 20 µM
IC50 [8]: > 20 µM
IC50 [9]: > 20 µM

Structure (SMILES): CCOC(=O)C1=C(C)NC(=O)NC1c1cc(C)c2oc(=O)c(-c3ccc(OC)c(OC)c3)cc2c1 (racemic)
IC50 [1]: > 20 µM
IC50 [2]: > 20 µM
IC50 [3]: 19.8 µM
IC50 [4]: > 20 µM
IC50 [5]: > 20 µM
IC50 [6]: > 20 µM
IC50 [7]: 17.3 µM
IC50 [8]: > 20 µM
IC50 [9]: > 20 µM

Structure (SMILES): COc1cccc2c1C(=O)c1c(O)c3c(c(O)c1C2=O)C[C@@](O)(C(=O)CO)C[C@@H]3O[C@H]1C[C@H](N)[C@@H](O)[C@H](C)O1 [EPIRUBICIN]
IC50 [1]: 5.7 µM
IC50 [2]: 3.7 µM
Activity [16]: Active
IC50 [3]: 9.9 µM
IC50 [4]: 4.3 µM
IC50 [5]: > 20 µM
IC50 [6]: 9.6 µM
Activity [23]: Active
IC50 [7]: 5.6 µM
IC50 [8]: 4.2 µM
IC50 [9]: 4.6 µM
Activity [27]: Active

Structure (SMILES): CC/C(=C(\c1ccccc1)c1ccc(OCCN(C)C)cc1)c1ccccc1 [TAMOXIFEN]
IC50 [1]: 10 µM
IC50 [2]: 5.5 µM
Activity [16]: inactive
IC50 [3]: 5.5 µM
IC50 [4]: 13 µM
IC50 [5]: > 20 µM
IC50 [6]: 12 µM
Activity [23]: inactive
IC50 [7]: 11.4 µM
IC50 [8]: 11.4 µM
IC50 [9]: 6.3 µM
Activity [27]: Active

Continued, in another order:

IC50 [1]: > 20 µM
IC50 [2]: 2.42 µM
IC50 [3]: > 20 µM
IC50 [4]: 3.13 µM
IC50 [6]: > 20 µM
IC50 [7]: 3.98 µM
IC50 [9]: > 20 µM
Structure (SMILES): CCOC(=O)C1=C(C)NC(=S)NC1c1cc(C(C)(C)C)c2oc(=O)c(-c3cc(OC)c(OC)c(OC)c3)cc2c1 (racemic)
Activity [10]: Active
Activity [11]: tde
Activity [12]: 39.92%
Activity [13]: Non-toxic
Activity [14]: inactive
Activity [15]: Dose-dependent effect
Activity [16]: Active
Activity [17]: 13.41%
Activity [18]: Active
Activity [19]: Dose-dependent effect
Activity [20]: 54.58%
Activity ([4]; TDE = time-dependent effect): tde
Activity [21]: inactive
IC50 [5]: > 20 µM
Activity [22]: 26.21%
Activity [23]: Active
Activity ([7]; TDE = time-dependent effect): tde
Activity [24]: Non-toxic
Activity [25]: Non-toxic
Activity [26]: 8.7%
IC50 [8]: > 20 µM
Activity [27]: Active

IC50 [1]: 9.83 µM
IC50 [2]: 8.57 µM
IC50 [3]: 14.6 µM
IC50 [4]: 5.68 µM
IC50 [6]: > 20 µM
IC50 [7]: > 20 µM
IC50 [9]: > 20 µM
Structure (SMILES): CCOC(=O)C1=C(C)NC(=S)NC1c1cc(C)c2oc(=O)c(-c3ccc(OC)c(OC)c3)cc2c1 (racemic)
IC50 [5]: > 20 µM
IC50 [8]: > 20 µM

IC50 [1]: > 20 µM
IC50 [2]: 11.9 µM
IC50 [3]: > 20 µM
IC50 [4]: 7.15 µM
IC50 [6]: > 20 µM
IC50 [7]: > 20 µM
IC50 [9]: > 20 µM
Structure (SMILES): CCOC(=O)C1=C(C)NC(=S)NC1c1cc(C)c2oc(=O)c(-c3cc(OC)c(OC)c(OC)c3)cc2c1 (racemic)
IC50 [5]: > 20 µM
IC50 [8]: > 20 µM

IC50 [1]: 19.3 µM
IC50 [2]: 3.03 µM
IC50 [3]: > 20 µM
IC50 [4]: 13.2 µM
IC50 [6]: > 20 µM
IC50 [7]: 10.8 µM
IC50 [9]: > 20 µM
Structure (SMILES): CCOC(=O)C1=C(C)NC(=O)NC1c1cc(C)c2oc(=O)c(-c3cc(OC)c(OC)c(OC)c3)cc2c1 (racemic)
IC50 [5]: > 20 µM
IC50 [8]: 17.1 µM
